Laboratory results reported in patent US20260262643A1, “HERBICIDAL BENZOXAZINES” (FMC CORPORATION, priority 2022, published 2026).

Experiments:
foxtail, giant = assay: Test A preemergence; format: in vivo, Setaria faberi; details: 0 to 100 scale
Method in brief: (§1)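 Loam/sand soil; pre-em directed soil spray at planting, post-em spray at 1–2 leaf (2–10 cm). Compound in non-phytotoxic solvent + surfactant. Greenhouse 10 d; visual injury vs untreated, 0 = no effect, 100 = complete control.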

ragweed [1] = assay: Test A preemergence; format: in vivo, Ambrosia artemisiifolia; details: 0 to 100 scale
Method in brief: as §1

wheat [2] = assay: Test A preemergence; format: in vivo, Triticum aestivum; details: 0 to 100 scale
Method in brief: as §1

ragweed [3] = assay: Test A postemergence; format: in vivo, Ambrosia artemisiifolia; details: postemergence, 10 days
Method in brief: as §1

soybean [4] = assay: Test A postemergence; format: in vivo, Glycine max; details: postemergence, 10 days
Method in brief: as §1

barnyardgrass [5] = assay: Test A preemergence; format: in vivo, Echinochloa crusgalli; details: visual injury after 10 days, 0 to 100 scale, 0 is no effect, 100 is complete control
Excerpt: (§2) Seeds of plant species selected from barnyardgrass (Echinochloa crusgalli), blackgrass (Alopecurus myosuroides), corn (Zea mays), foxtail, giant (giant foxtail, Setaria faberi), goosegrass (Eleusine indica), kochia (Bassia scoparia), oat, wild (wild oat, Avena fatua), pigweed, palmer (palmer amaranth, palmer pigweed, Amaranthus palmeri), Pigweed, Redroot (redroot pigweed, Amaranthus retroflexus), ragweed (common ragweed, Ambrosia artemisiifolia), ryegrass, Italian (italian ryegrass, Lolium multiflorum), soybean (Glycine max), and wheat (Triticum aestivum) were planted into a blend of loam soil and sand and treated preemergence with a directed soil spray using test chemicals formulated in a non-phytotoxic solvent mixture which included a surfactant. At the same time, plants selected from these crops and weed species and also galium (catchweed bedstraw, Galium aparine) and horseweed (Erigeron canadensis) were planted in pots containing the same blend of loam soil and sand and treated with postemergence applications of test chemicals formulated in the same manner. Plants ranged in height from 2 to 10 cm and were in the one- to two-leaf stage for the postemergence treatment. Treated plants and untreated controls were maintained in a greenhouse for 10 days, after which time all treated plants were compared to untreated controls and visually evaluated for injury. Plant response ratings, summarized in Table A, are based on a 0 to 100 scale where 0 is no effect and 100 is complete control. A dash (-) response means no test result.

galium = assay: Test A postemergence; format: in vivo, Galium aparine; details: postemergence, 10 days
Method in brief: as §1

wheat [6] = assay: Test A postemergence; format: in vivo, Triticum aestivum; details: postemergence, 10 days
Method in brief: as §1

pigweed, palmer [7] = assay: Test A preemergence; format: in vivo, Amaranthus palmeri; details: 0 to 100 scale
Method in brief: as §1

barnyardgrass [8] = assay: Test B flooded paddy test; format: in vivo, Echinochloa crus-galli; details: 250 g ai/ha, Flood, 13 days, 0 to 100 scale (0 no effect, 100 complete control)
Method in brief: (§3)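 Compound is introduced into paddy water covering soil by 3 cm, treating plants that have reached two leaves. Pots are kept flooded at that depth under greenhouse conditions. Assessment at 13 days gives a 0–100 visual control score.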

kochia [9] = assay: Test A postemergence; format: in vivo, Bassia scoparia; details: postemergence, 10 days
Method in brief: as §1

rice = assay: Test B flooded paddy test; format: in vivo, Oryza sativa; details: 250 g ai/ha, Flood, 13 days, 0 to 100 scale (0 no effect, 100 complete control)
Method in brief: as §3

pigweed, palmer [10] = assay: Test A postemergence; format: in vivo, Amaranthus palmeri; details: postemergence, 10 days
Method in brief: as §1

soybean [11] = assay: Test A preemergence; format: in vivo, Glycine max; details: 0 to 100 scale
Method in brief: as §1

ryegrass, Italian [12] = assay: Test A preemergence; format: in vivo, Lolium multiflorum; details: 0 to 100 scale
Method in brief: as §1

oat, wild [13] = assay: Test A postemergence; format: in vivo, Avena fatua; details: postemergence, 10 days
Method in brief: as §1

sedge, umbrella = assay: Test B flooded paddy test; format: in vivo, Cyperus difformis; details: 250 g ai/ha, Flood, 13 days, 0 to 100 scale (0 no effect, 100 complete control)
Method in brief: as §3

blackgrass [14] = assay: Test A preemergence; format: in vivo, Alopecurus myosuroides; details: 0 to 100 scale
Method in brief: as §1

barnyardgrass [15] = assay: Test A postemergence; format: in vivo, Echinochloa crusgalli; details: postemergence, 10 days
Excerpt: as §2

oat, wild [16] = assay: Test A preemergence; format: in vivo, Avena fatua; details: 0 to 100 scale
Method in brief: as §1

blackgrass [17] = assay: Test A postemergence; format: in vivo, Alopecurus myosuroides; details: postemergence, 10 days
Method in brief: as §1

corn [18] = assay: Test A postemergence; format: in vivo, Zea mays; details: postemergence, 10 days
Method in brief: as §1

ducksalad = assay: Test B flooded paddy test; format: in vivo, Heteranthera limosa; details: 250 g ai/ha, Flood, 13 days, 0 to 100 scale (0 no effect, 100 complete control)
Method in brief: as §3

corn [19] = assay: Test A preemergence; format: in vivo, Zea mays; details: 0 to 100 scale
Method in brief: as §1

kochia [20] = assay: Test A preemergence; format: in vivo, Bassia scoparia; details: 0 to 100 scale
Method in brief: as §1

ryegrass, Italian [21] = assay: Test A postemergence; format: in vivo, Lolium multiflorum; details: postemergence, 10 days
Method in brief: as §1

horseweed = assay: Test A postemergence; format: in vivo, Erigeron canadensis; details: postemergence, 10 days
Method in brief: as §1

[22] = 500 g ai/ha, visual injury after 10 days, 0 is no effect, 100 is complete control
[23] = 125 g ai/ha, 0 to 100 scale, 0 no effect, 100 complete control
[24] = 500 g ai/ha, visual injury, 0 to 100 scale (0 no effect, 100 complete control)

Cc1ccc(-n2cnc(C(C)(C)O)n2)cc1C(=O)N1C[C@H](C)Oc2c(Cl)cccc21 [Compound 149]
60: Plant response rating, Corn (corn [19]; 125 g ai/ha)
75: Plant response rating, Ducksalad (ducksalad)
90: Plant response rating, Ragweed (ragweed [1]; [22]) | Plant response rating, Wheat (wheat [2]; [22]) | Plant response rating, Ragweed (ragweed [3]; [24]) | Wheat plant response rating (wheat [6]; [23]) | Plant response rating, Wheat (wheat [6]; [24]) | Plant response rating, Pigweed, Palmer (pigweed, palmer [7]; 125 g ai/ha) | Plant response rating, Kochia (kochia [9]; [24]) | Plant response rating, Pigweed, Palmer (pigweed, palmer [10]; [24]) | Oat, Wild plant response rating (oat, wild [13]; [23]) | Plant response rating, Oat, Wild (oat, wild [13]; [24]) | Plant response rating, Blackgrass (blackgrass [14]; [22]) | Plant response rating, Oat, Wild (oat, wild [16]; 125 g ai/ha) | Plant response rating, Oat, Wild (oat, wild [16]; [22]) | Blackgrass plant response rating (blackgrass [17]; [23]) | Plant response rating, Blackgrass (blackgrass [17]; [24]) | Corn plant response rating (corn [18]; [23]) | Plant response rating, Corn (corn [19]; [22])
20: Plant response rating, Rice (rice)
35: Plant response rating, Barnyardgrass (barnyardgrass [8])
80: Ragweed plant response rating (ragweed [3]; [23]) | Kochia plant response rating (kochia [9]; [23]) | Pigweed, Palmer plant response rating (pigweed, palmer [10]; [23]) | Plant response rating, Blackgrass (blackgrass [14]; 125 g ai/ha) | Ryegrass, Italian plant response rating (ryegrass, Italian [21]; [23])
70: Plant response rating, Horseweed (horseweed; [24])
50: Barnyardgrass plant response rating (barnyardgrass [15]; [23]) | Horseweed plant response rating (horseweed; [23])
100: Plant response rating, Foxtail, Giant (foxtail, giant; 125 g ai/ha) | Plant response rating, Foxtail, Giant (foxtail, giant; [22]) | Plant response rating, Ragweed (ragweed [1]; 125 g ai/ha) | Soybean plant response rating (soybean [4]; [23]) | Plant response rating, Soybean (soybean [4]; [24]) | Plant response rating, Barnyardgrass (barnyardgrass [5]; 125 g ai/ha) | Plant response rating, Barnyardgrass (barnyardgrass [5]; 500 g ai/ha) | Galium plant response rating (galium; [23]) | Plant response rating, Galium (galium; [24]) | Plant response rating, Pigweed, Palmer (pigweed, palmer [7]; [22]) | Plant response rating, Soybean (soybean [11]; 125 g ai/ha) | Plant response rating, Soybean (soybean [11]; [22]) | Plant response rating, Ryegrass, Italian (ryegrass, Italian [12]; 125 g ai/ha) | Plant response rating, Ryegrass, Italian (ryegrass, Italian [12]; [22]) | Plant response rating, Sedge, Umbrella (sedge, umbrella) | Plant response rating, Barnyardgrass (barnyardgrass [15]; [24]) | Plant response rating, Corn (corn [18]; [24]) | Plant response rating, Kochia (kochia [20]; 125 g ai/ha) | Plant response rating, Kochia (kochia [20]; [22]) | Plant response rating, Ryegrass, Italian (ryegrass, Italian [21]; [24])
30: Plant response rating, Wheat (wheat [2]; 125 g ai/ha)
